# Measurements reported in patent US20120214760A1, “TREATMENT OF URINARY TRACT INFECTIONS WITH ANTIBACTERIAL AMINOGLYCOSIDE COMPOUNDS” (Achaogen, Inc., priority 2009, published 2012).
# Like-named read-outs stand apart in the source and are kept apart here.
# How the values were obtained:
# [1] = test system: P. aeruginosa ATCC 27853 (APAE001); experiment: MIC, CLSI broth microdilution; type: cell-based; details: Pseudomonas aeruginosa
# Method: (§1) Minimum inhibitory concentrations (MIC) were determined by reference Clinical and Laboratory Standards Institute (CLSI) broth microdilution methods per M7-A7 [2006]. Quality control ranges utilizing E. coli ATCC 25922, P. aeruginosa ATCC 27853 and S. aureus ATCC 29213, and interpretive criteria for comparator agents were as published in CLSI M100-S17 [2007]. Briefly, serial two-fold dilutions of the test compounds were prepared at 2× concentration in Mueller Hinton Broth. The compound dilutions were mixed in 96-well assay plates in a 1:1 ratio with bacterial inoculum. The inoculum was prepared by suspension of a colony from an agar plate that was prepared the previous day. Bacteria were suspended in sterile saline and added to each assay plate to obtain a final concentration of 5×10^5 CFU/mL. The plates were incubated at 35° C. for 20 hours in ambient air.
# [2] = test system: E. coli ATCC 25922 (AECO001); experiment: MIC, CLSI broth microdilution; type: cell-based; details: Escherichia coli
# Method: as §1
# [3] = ATCC27853, read-out: MIC APAE001, Table 1, APAE001 is ATCC27853
# [4] = ATCC25922, read-out: MIC AECO001, Table 1, AECO001 is ATCC25922
# [5] = ATCC27853, Table 2, read-out: MIC P. aeruginosa
# [6] = ATCC25922, Table 2, read-out: MIC E. coli
# [7] = Table 1, AECO001 is ATCC25922, read-out: MIC AECO001
Structure (SMILES),"MIC [1, 3] [µg/mL]","MIC [2, 4] [µg/mL]","MIC [1, 5] [µg/mL]","MIC [2, 6] [µg/mL]","MIC [2, 7] [µg/mL]"
"CN[C@@H]1[C@@H](O)[C@@H](O[C@@H]2[C@@H](O)[C@H](O[C@H]3OC(CNC[C@H]4C[C@H](N)C4)=CC[C@H]3N)[C@@H](N)C[C@H]2NC(=O)C2(O)CCNC2)OC[C@]1(C)O (stereo partly drawn) [Example 78, 6′-(Methyl-trans-3-amino-cyclobutyl)-1-(3-hydroxy-pyrrolidin-3-yl-acetyl)-sisomicin]",1 to 16,< 1,,,
CN[C@@H]1[C@@H](O)[C@@H](O[C@@H]2[C@@H](O)[C@H](O[C@H]3OC(CNCCCN)=CC[C@H]3N)[C@@H](N)C[C@H]2NC(=O)C2(O)CNC2)OC[C@]1(C)O [Example 57],,,< 1,< 1,< 1
"CN[C@@H]1[C@@H](O)[C@@H](O[C@@H]2[C@@H](O)[C@H](O[C@H]3OC(CNCC4CNC4)=CC[C@H]3N)[C@@H](N)C[C@H]2NC(=O)[C@@H](O)CN)OC[C@]1(C)O [Example 73, 6′-(Methyl-azetidin-3-yl)-1-(3-amino-2(S)-hydroxy-propionyl)-sisomicin]",1 to 16,1 to 16,,,
CN[C@@H]1[C@@H](O)[C@@H](O[C@@H]2[C@@H](O)[C@H](O[C@H]3OC(CNC[C@H]4C[C@H](N)C4)=CC[C@H]3N)[C@@H](N)C[C@H]2NC(=O)C2(O)CC(N)C2)OC[C@]1(C)O (stereo partly drawn) [Example 60],1 to 16,< 1,,,
"CNCC1=CC[C@@H](NC(=N)N)[C@@H](O[C@H]2[C@H](O)[C@@H](O[C@H]3OC[C@](C)(O)[C@H](NC)[C@H]3O)[C@H](N)C[C@@H]2N)O1 [Example 108, 6′-Methyl-2′-guanidinium-sisomicin]",1 to 16,< 1,,,
"CN[C@@H]1[C@@H](O)[C@@H](O[C@@H]2[C@@H](O)[C@H](O[C@H]3OC(CNCCCCCN)=CC[C@H]3N)[C@@H](N)C[C@H]2NC(=O)[C@@H](O)CCN)OC[C@]1(C)O [Example 44, 6′-(5-Amino-pentyl)-1-(4-amino-2(S)-hydroxy-butyryl)-sisomicin]",1 to 16,< 1,,,
CN[C@@H]1[C@@H](O)[C@@H](O[C@@H]2[C@@H](O)[C@H](O[C@H]3OC(CNCC4(O)CC(N)C4)=CC[C@H]3N)[C@@H](N)C[C@H]2NC(=O)[C@@H](O)CCN)OC[C@]1(C)O (stereo partly drawn) [Example 46],1 to 16,< 1,,,
"CN[C@@H]1[C@@H](O)[C@@H](O[C@@H]2[C@@H](O)[C@H](O[C@H]3OC(CN)=CC[C@H]3NCC(O)CN)[C@@H](N)C[C@H]2NC(=O)[C@@H](O)CCN)OC[C@]1(C)O (stereo partly drawn) [Example 101, 2′-(2-Hydroxy-3-amino-propyl)-1-(4-amino-2(S)-hydroxy-butyryl)-sisomicin]",1 to 16,< 1,,,
"CN[C@@H]1[C@@H](O)[C@@H](O[C@@H]2[C@@H](O)[C@H](O[C@H]3OC(CN)=CC[C@H]3NC(=O)C(O)CN)[C@@H](N)C[C@H]2NC(=O)[C@@H](O)CCN)OC[C@]1(C)O (stereo partly drawn) [Example 89, 2′-(3-Amino-2-hydroxy-propionyl)-1-(4-amino-2(S)-hydroxy-butyryl)-sisomicin]",1 to 16,< 1,,,
"CN[C@@H]1[C@@H](O)[C@@H](O[C@@H]2[C@@H](O)[C@H](O[C@H]3OC(CNCCO)=CC[C@H]3N)[C@@H](N)C[C@H]2NC(=O)[C@H](O)CCN)OC[C@]1(C)O [Example 2, 6′-(2-Hydroxy-ethyl)-1-(4-amino-2(R)-hydroxy-butyryl)-sisomicin]",1 to 16,1 to 16,,,
"CN[C@@H]1[C@@H](O)[C@@H](O[C@@H]2[C@@H](O)[C@H](O[C@H]3OC(CNCCNC4CNC4)=CC[C@H]3N)[C@@H](N)C[C@H]2NC(=O)[C@@H](O)CN)OC[C@]1(C)O [Example 81, 6′-(N-(Azetidin-3-yl)-2-amino-ethyl)-1-(3-amino-2(S)-hydroxy-propionyl)-sisomicin]",> 16,1 to 16,,,
"CN[C@@H]1[C@@H](O)[C@@H](O[C@@H]2[C@@H](O)[C@H](O[C@H]3OC(CNCCC4(O)CNC4)=CC[C@H]3N)[C@@H](N)C[C@H]2NC(=O)[C@@H](O)CN)OC[C@]1(C)O [Example 70, 6′-(Ethyl-2-(3-hydroxy-azetidin-3-yl))-1-(3-amino-2(S)-hydroxy-propionyl)-sisomicin]",> 16,1 to 16,,,
"CN[C@@H]1[C@@H](O)[C@@H](O[C@@H]2[C@@H](O)[C@H](O[C@H]3OC(CNCC(O)CCN)=CC[C@H]3N)[C@@H](N)C[C@H]2NC(=O)C(O)C2CNC2)OC[C@]1(C)O (stereo partly drawn) [Example 77, 6′-(2-Hydroxy-4-amino-butyl)-1-(2-(azetidin-3-yl)-2-hydroxy-acetyl)-sisomicin]",1 to 16,1 to 16,,,
"CN[C@@H]1[C@@H](O)[C@@H](O[C@@H]2[C@@H](O)[C@H](O[C@H]3OC(CN)=CC[C@H]3NCC3CCNC3)[C@@H](N)C[C@H]2NC(=O)[C@@H](O)CCN)OC[C@]1(C)O (stereo partly drawn) [Example 84, 2′-(Methyl-pyrrolidin-3-yl)-1-(4-amino-2(S)-hydroxy-butyryl)-sisomicin]",1 to 16,< 1,,,
"CN[C@@H]1[C@@H](O)[C@@H](O[C@@H]2[C@@H](O)[C@H](O[C@H]3OC(CNCC(O)CO)=CC[C@H]3N)[C@@H](N)C[C@H]2NC(=O)[C@H](O)CN)OC[C@]1(C)O (stereo partly drawn) [Example 10, 6′-(2-Hydroxy-propanol)-1-(3-amino-2(R)-hydroxy-propionyl)-sisomicin]",1 to 16,1 to 16,,,
"CN[C@@H]1[C@@H](O)[C@@H](O[C@@H]2[C@@H](O)[C@H](O[C@H]3OC(CN)=CC[C@H]3NC3CNC3)[C@@H](N)C[C@H]2NC(=O)[C@@H](O)CCN)OC[C@]1(C)O [Example 96, 2′-(Azetidin-3-yl)-1-(4-amino-2(S)-hydroxy-butyryl)-sisomicin]",,,1 to 16,< 1,< 1
"CN[C@@H]1[C@@H](O)[C@@H](O[C@@H]2[C@@H](O)[C@H](O[C@H]3OC(CNCC4CCNCC4)=CC[C@H]3N)[C@@H](N)C[C@H]2NC(=O)[C@H](O)CCN)OC[C@]1(C)O [Example 4, 6′-(Methyl-piperidin-4-yl)-1-(4-amino-2(R)-hydroxy-butyryl)-sisomicin]",1 to 16,1 to 16,,,
"CN[C@@H]1[C@@H](O)[C@@H](O[C@@H]2[C@@H](O)[C@H](O[C@H]3OC(CN)=CC[C@H]3NC(=N)N)[C@@H](N)C[C@H]2NC(=O)[C@@H](O)CCN)OC[C@]1(C)O [Example 103, 2′-Guanidinium-1-(4-amino-2(S)-hydroxy-butyryl)-sisomicin]",,,< 1,< 1,< 1
"CN[C@@H]1[C@@H](O)[C@@H](O[C@@H]2[C@@H](O)[C@H](O[C@H]3OC(CNCCCO)=CC[C@H]3N)[C@@H](N)C[C@H]2NC(=O)[C@@H](O)CN)OC[C@]1(C)O [Example 54, 6′-(3-Propanol)-1-(3-amino-2(S)-hydroxy-propionyl)-sisomicin]",1 to 16,< 1,,,
"CN[C@@H]1[C@@H](O)[C@@H](O[C@@H]2[C@@H](O)[C@H](O[C@H]3OC(CN)=CC[C@H]3NC(=O)CN)[C@@H](N)C[C@H]2NC(=O)[C@@H](O)CCN)OC[C@]1(C)O [Example 87, 2′-(2-Amino-acetyl)-1-(4-amino-2(S)-hydroxy-butyryl)-sisomicin]",1 to 16,1 to 16,,,
"CN[C@@H]1[C@@H](O)[C@@H](O[C@@H]2[C@@H](O)[C@H](O[C@H]3OC(CNCCN)=CC[C@H]3N)[C@@H](N)C[C@H]2NC(=O)[C@@H](O)CCN)OC[C@]1(C)O [Example 38, 6′-(2-Amino-ethyl)-1-(4-amino-2(S)-hydroxy-butyryl)-sisomicin]",1 to 16,< 1,,,
